Measurements as given in the supplement of paper PMC10307832.

Columns and labels:
Assay in all cases: relative viability (nuclei count vs DMSO), 5 days (fraction); higher = more cells survive
NCI-H1666 = tested on: NCI-H1666
Outline: (§1)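 A single step with final 0.05% Triton X-100, 1% formaldehyde and 1 ug/ml Hoechst fixed the cells and stained nuclei 5 days after treatment. Lung cancer cell lines in 1536-well plates had been treated by pin tool the day after seeding with one drug alone or a fixed anchor-drug dose plus five library-drug doses (not always all listed) in √10 steps, and nuclei were counted on 4× images. Relative viability is the ratio of nuclei in treated wells to nuclei in vehicle wells, taken as the median of duplicate plates.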

NCI-H661 = tested on: NCI-H661
Outline: as §1

CAL-12T = tested on: CAL-12T
Outline: as §1

NCI-H727 = tested on: NCI-H727
Outline: as §1

NCI-H1650 = tested on: NCI-H1650
Outline: as §1

NCI-H441 = tested on: NCI-H441
Outline: as §1

NCI-H1437 = tested on: NCI-H1437
Outline: as §1

NCI-H2023 = tested on: NCI-H2023
Outline: as §1

EKVX = tested on: EKVX
Outline: as §1

201T = tested on: 201T
Outline: as §1

LU99A = tested on: LU99A
Outline: as §1

ABC-1 = tested on: ABC-1
Outline: as §1

NCI-H838 = tested on: NCI-H838
Outline: as §1

NCI-H3122 = tested on: NCI-H3122
Outline: as §1

NCI-H2009 = tested on: NCI-H2009
Outline: as §1

PC-14 = tested on: PC-14
Outline: as §1

COR-L 105 = tested on: COR-L 105
Outline: as §1

BEN = tested on: BEN
Outline: as §1

COR-L23 = tested on: COR-L23
Outline: as §1

HARA = tested on: HARA
Outline: as §1

HCC-366 = tested on: HCC-366
Outline: as §1

NCI-H2170 = tested on: NCI-H2170
Outline: as §1

LK-2 = tested on: LK-2
Outline: as §1

## COc1cc(N2CCC(C(N)=O)CC2)ccc1Nc1nc(N)c(Cl)c(Nc2ccccc2S(=O)(=O)C(C)C)n1 [HG-5-88-01] + CC(C)C[C@H](NC(=O)[C@H](Cc1ccccc1)NC(=O)c1cnccn1)B(O)O [Bortezomib] (partner 0.002 µM)
NCI-H1666; first compound 0.04 µM
  relative viability: 0.944
NCI-H1666; first compound 0.1265 µM
  relative viability: 0.897
NCI-H1666; first compound 0.4 µM
  relative viability: 0.597
NCI-H1666; first compound 1.265 µM
  relative viability: 0.58
NCI-H1666; first compound 4 µM
  relative viability: 0.452
NCI-H661; first compound 0.04 µM
  relative viability: 0.838
NCI-H661; first compound 0.1265 µM
  relative viability: 0.878
NCI-H661; first compound 0.4 µM
  relative viability: 0.726
NCI-H661; first compound 4 µM
  relative viability: 0.894
CAL-12T; first compound 0.04 µM
  relative viability: 1.16
CAL-12T; first compound 0.1265 µM
  relative viability: 0.897
CAL-12T; first compound 0.4 µM
  relative viability: 0.837
CAL-12T; first compound 1.265 µM
  relative viability: 0.955
CAL-12T; first compound 4 µM
  relative viability: 0.579
NCI-H727; first compound 0.04 µM
  relative viability: 0.689
NCI-H727; first compound 0.1265 µM
  relative viability: 0.924
NCI-H727; first compound 0.4 µM
  relative viability: 0.769
NCI-H727; first compound 1.265 µM
  relative viability: 0.643
NCI-H727; first compound 4 µM
  relative viability: 0.388
NCI-H1650; first compound 0.04 µM
  relative viability: 0.207
NCI-H1650; first compound 0.1265 µM
  relative viability: 0.219
NCI-H1650; first compound 0.4 µM
  relative viability: 0.195
NCI-H1650; first compound 1.265 µM
  relative viability: 0.185
NCI-H1650; first compound 4 µM
  relative viability: 0.189
NCI-H441; first compound 0.04 µM
  relative viability: 0.579
NCI-H441; first compound 0.1265 µM
  relative viability: 0.423
NCI-H441; first compound 0.4 µM
  relative viability: 0.622
NCI-H441; first compound 1.265 µM
  relative viability: 0.558
NCI-H441; first compound 4 µM
  relative viability: 0.379
NCI-H1437; first compound 0.04 µM
  relative viability: 0.491
NCI-H1437; first compound 0.1265 µM
  relative viability: 0.477
NCI-H1437; first compound 0.4 µM
  relative viability: 0.539
NCI-H1437; first compound 1.265 µM
  relative viability: 0.401
NCI-H1437; first compound 4 µM
  relative viability: 0.263
NCI-H2023; first compound 0.04 µM
  relative viability: 1.08
NCI-H2023; first compound 0.1265 µM
  relative viability: 1.34
NCI-H2023; first compound 0.4 µM
  relative viability: 0.753
NCI-H2023; first compound 1.265 µM
  relative viability: 0.542
NCI-H2023; first compound 4 µM
  relative viability: 0.454
EKVX; first compound 0.04 µM
  relative viability: 1.09
EKVX; first compound 0.1265 µM
  relative viability: 1.02
EKVX; first compound 0.4 µM
  relative viability: 1.02
EKVX; first compound 4 µM
  relative viability: 0.854
201T; first compound 0.04 µM
  relative viability: 1.12
201T; first compound 0.1265 µM
  relative viability: 1.03
201T; first compound 0.4 µM
  relative viability: 1.1
201T; first compound 1.265 µM
  relative viability: 1.06
201T; first compound 4 µM
  relative viability: 1.2
LU99A; first compound 0.04 µM
  relative viability: 1.09
LU99A; first compound 0.1265 µM
  relative viability: 1.15
LU99A; first compound 0.4 µM
  relative viability: 1.03
LU99A; first compound 1.265 µM
  relative viability: 1.21
LU99A; first compound 4 µM
  relative viability: 1.07
ABC-1; first compound 0.04 µM
  relative viability: 0.335
ABC-1; first compound 0.1265 µM
  relative viability: 0.332
ABC-1; first compound 0.4 µM
  relative viability: 0.237
ABC-1; first compound 1.265 µM
  relative viability: 0.321
ABC-1; first compound 4 µM
  relative viability: 0.283
NCI-H838; first compound 0.04 µM
  relative viability: 0.818
NCI-H838; first compound 0.1265 µM
  relative viability: 0.645
NCI-H838; first compound 0.4 µM
  relative viability: 0.759
NCI-H838; first compound 1.265 µM
  relative viability: 0.702
NCI-H838; first compound 4 µM
  relative viability: 0.333
NCI-H3122; first compound 0.04 µM
  relative viability: 0.894
NCI-H3122; first compound 0.1265 µM
  relative viability: 0.647
NCI-H3122; first compound 0.4 µM
  relative viability: 0.335
NCI-H3122; first compound 1.265 µM
  relative viability: 0.296
NCI-H3122; first compound 4 µM
  relative viability: 0.216
NCI-H2009; first compound 0.04 µM
  relative viability: 0.99
NCI-H2009; first compound 0.1265 µM
  relative viability: 1.19
NCI-H2009; first compound 0.4 µM
  relative viability: 0.845
NCI-H2009; first compound 1.265 µM
  relative viability: 0.986
NCI-H2009; first compound 4 µM
  relative viability: 0.765
PC-14; first compound 0.04 µM
  relative viability: 0.837
PC-14; first compound 0.1265 µM
  relative viability: 0.969
PC-14; first compound 0.4 µM
  relative viability: 0.864
PC-14; first compound 1.265 µM
  relative viability: 0.883
PC-14; first compound 4 µM
  relative viability: 0.316
COR-L 105; first compound 0.04 µM
  relative viability: 0.875
COR-L 105; first compound 0.1265 µM
  relative viability: 0.77
COR-L 105; first compound 0.4 µM
  relative viability: 0.619
COR-L 105; first compound 1.265 µM
  relative viability: 0.375
COR-L 105; first compound 4 µM
  relative viability: 0.531
BEN; first compound 0.04 µM
  relative viability: 0.652
BEN; first compound 0.1265 µM
  relative viability: 0.752
BEN; first compound 0.4 µM
  relative viability: 0.714
BEN; first compound 1.265 µM
  relative viability: 0.841
BEN; first compound 4 µM
  relative viability: 0.791
COR-L23; first compound 0.04 µM
  relative viability: 1.06
COR-L23; first compound 0.1265 µM
  relative viability: 1.08
COR-L23; first compound 0.4 µM
  relative viability: 0.854
COR-L23; first compound 1.265 µM
  relative viability: 0.91
COR-L23; first compound 4 µM
  relative viability: 0.896
HARA; first compound 0.04 µM
  relative viability: 1.16
HARA; first compound 0.1265 µM
  relative viability: 1.03
HARA; first compound 0.4 µM
  relative viability: 1.07
HARA; first compound 1.265 µM
  relative viability: 1.02
HARA; first compound 4 µM
  relative viability: 1.02
HCC-366; first compound 0.04 µM
  relative viability: 1.11
HCC-366; first compound 0.1265 µM
  relative viability: 1.09
HCC-366; first compound 0.4 µM
  relative viability: 0.972
HCC-366; first compound 1.265 µM
  relative viability: 1.04
HCC-366; first compound 4 µM
  relative viability: 1.24

## CC(C)Oc1cc(Nc2nc(N[C@@H](C)c3ccc(F)cn3)ncc2Cl)n[nH]1 [AZ23] + Cc1nc(NC(=O)N2CCC[C@H]2C(N)=O)sc1-c1ccnc(C(C)(C)C(F)(F)F)c1 [Alpelisib] (partner 2 µM)
NCI-H1666; first compound 0.01 µM
  relative viability: 0.869
NCI-H1666; first compound 0.03162 µM
  relative viability: 1.02
NCI-H1666; first compound 0.3162 µM
  relative viability: 0.92
NCI-H661; first compound 0.01 µM
  relative viability: 0.629
NCI-H661; first compound 0.03162 µM
  relative viability: 0.686
NCI-H661; first compound 0.3162 µM
  relative viability: 0.908
CAL-12T; first compound 0.01 µM
  relative viability: 0.787
CAL-12T; first compound 0.03162 µM
  relative viability: 1.26
CAL-12T; first compound 0.3162 µM
  relative viability: 1.28
NCI-H727; first compound 0.01 µM
  relative viability: 0.634
NCI-H727; first compound 0.03162 µM
  relative viability: 0.628
NCI-H727; first compound 0.3162 µM
  relative viability: 0.601
NCI-H441; first compound 0.01 µM
  relative viability: 1.05
NCI-H441; first compound 0.03162 µM
  relative viability: 0.621
NCI-H441; first compound 0.3162 µM
  relative viability: 0.576
NCI-H1437; first compound 0.01 µM
  relative viability: 0.949
NCI-H1437; first compound 0.03162 µM
  relative viability: 1.15
NCI-H1437; first compound 0.3162 µM
  relative viability: 1.06
NCI-H2023; first compound 0.03162 µM
  relative viability: 0.675
NCI-H2023; first compound 0.3162 µM
  relative viability: 0.623
EKVX; first compound 0.01 µM
  relative viability: 0.923
EKVX; first compound 0.03162 µM
  relative viability: 1.07
EKVX; first compound 0.3162 µM
  relative viability: 0.978
NCI-H2170; first compound 0.01 µM
  relative viability: 0.87
NCI-H2170; first compound 0.03162 µM
  relative viability: 0.887
NCI-H2170; first compound 0.3162 µM
  relative viability: 0.831
201T; first compound 0.01 µM
  relative viability: 1.03
201T; first compound 0.03162 µM
  relative viability: 1.09
201T; first compound 0.3162 µM
  relative viability: 1.02
LU99A; first compound 0.01 µM
  relative viability: 0.49
LU99A; first compound 0.03162 µM
  relative viability: 0.651
LU99A; first compound 0.3162 µM
  relative viability: 0.555
ABC-1; first compound 0.01 µM
  relative viability: 0.717
ABC-1; first compound 0.03162 µM
  relative viability: 1.23
ABC-1; first compound 0.3162 µM
  relative viability: 1.14
NCI-H838; first compound 0.01 µM
  relative viability: 0.968
NCI-H838; first compound 0.03162 µM
  relative viability: 1.25
NCI-H838; first compound 0.3162 µM
  relative viability: 0.998
NCI-H3122; first compound 0.01 µM
  relative viability: 0.811
NCI-H3122; first compound 0.03162 µM
  relative viability: 0.827
NCI-H3122; first compound 0.3162 µM
  relative viability: 0.77
NCI-H2009; first compound 0.01 µM
  relative viability: 1.13
NCI-H2009; first compound 0.03162 µM
  relative viability: 1.23
NCI-H2009; first compound 0.3162 µM
  relative viability: 1.19
PC-14; first compound 0.01 µM
  relative viability: 0.897
PC-14; first compound 0.03162 µM
  relative viability: 1.13
PC-14; first compound 0.3162 µM
  relative viability: 1.06
LK-2; first compound 0.03162 µM
  relative viability: 1.26
LK-2; first compound 0.3162 µM
  relative viability: 1.17
COR-L 105; first compound 0.01 µM
  relative viability: 0.676
COR-L 105; first compound 0.03162 µM
  relative viability: 1.33
COR-L 105; first compound 0.3162 µM
  relative viability: 0.813
BEN; first compound 0.01 µM
  relative viability: 1.02
BEN; first compound 0.03162 µM
  relative viability: 1.18
BEN; first compound 0.3162 µM
  relative viability: 1.09
COR-L23; first compound 0.01 µM
  relative viability: 0.815
COR-L23; first compound 0.03162 µM
  relative viability: 0.921
COR-L23; first compound 0.3162 µM
  relative viability: 0.821
HARA; first compound 0.01 µM
  relative viability: 1.18
HARA; first compound 0.03162 µM
  relative viability: 0.847
HARA; first compound 0.3162 µM
  relative viability: 0.774
HCC-366; first compound 0.01 µM
  relative viability: 0.391
HCC-366; first compound 0.03162 µM
  relative viability: 0.517
HCC-366; first compound 0.3162 µM
  relative viability: 0.334
